Laboratory results as given in paper PMC10257182, “Discovery of senolytics using machine learning” (Nature Communications, 2023).
“And” between values parts separate entries of the source, which are not always exact repeats. Equal entries are not always repeated. Where two headings read alike, the source gives them in different places.

Test system: non-senescent control IMR90 ER:RAS cells
Assay: Nuclei count (Hoechst, high content imaging) senolytic assay, OIS model, non-senescent control cells
Format: cell-based, human
Method in brief: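 We compared total nuclei counts between senescent and non-senescent IMR90 ER:RAS cells after 72 h compound exposure (10 nM–10 μM). Hoechst staining followed fixation and permeabilisation; ouabain served as senolytic positive control.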

[1] = Homo sapiens, IMR-90, 72 h, Control, log (dose) [M] -5, 72 h, mean n=3 (Fig 3C), read-out: Mean % Cell Survival
[2] = Homo sapiens, IMR-90, 72 h, Control, log (dose) [M] -5.33, 72 h, mean n=3 (Fig 3C), read-out: Mean % Cell Survival
[3] = Homo sapiens, IMR-90, 72 h, Control, log (dose) [M] -5.66, 72 h, mean n=3 (Fig 3C), read-out: Mean % Cell Survival
[4] = Homo sapiens, IMR-90, 72 h, Control, log (dose) [M] -6, 72 h, mean n=3 (Fig 3C), read-out: Mean % Cell Survival
[5] = Homo sapiens, IMR-90, 72 h, Control, log (dose) [M] -6.33, 72 h, mean n=3 (Fig 3C), read-out: Mean % Cell Survival
[6] = Homo sapiens, IMR-90, 72 h, Control, log (dose) [M] -6.66, 72 h, mean n=3 (Fig 3C), read-out: Mean % Cell Survival
[7] = Homo sapiens, IMR-90, 72 h, Control, log (dose) [M] -7, 72 h, mean n=3 (Fig 3C), read-out: Mean % Cell Survival
[8] = Homo sapiens, IMR-90, 72 h, Control, log (dose) [M] -7.33, 72 h, mean n=3 (Fig 3C), read-out: Mean % Cell Survival
[9] = Homo sapiens, IMR-90, 72 h, Control, log (dose) [M] -7.66, 72 h, mean n=3 (Fig 3C), read-out: Mean % Cell Survival
[10] = Homo sapiens, IMR-90, 72 h, Control, log (dose) [M] -8, 72 h, mean n=3 (Fig 3C), read-out: Mean % Cell Survival
[11] = Homo sapiens, IMR-90, Control cells, log (dose) [M] -5, individual replicates, SUP FIG 4C, read-out: % Cell Survival
[12] = Homo sapiens, IMR-90, Control cells, log (dose) [M] -6.66, individual replicates, SUP FIG 4C, read-out: % Cell Survival
[13] = Homo sapiens, IMR-90, Control cells, log (dose) [M] -7.33, individual replicates, SUP FIG 4C, read-out: % Cell Survival
[14] = Homo sapiens, IMR-90, Control, log (dose) [M] -5.66, read-out: % Cell Survival

CO[C@H]1C[C@@H]2CC[C@@H](C)[C@@](O)(O2)C(=O)C(=O)N2CCCC[C@H]2C(=O)O[C@H]([C@H](C)C[C@@H]2CC[C@@H](O)[C@H](OC)C2)CC(=O)[C@H](C)/C=C(\C)[C@@H](O)[C@@H](OC)C(=O)[C@H](C)C[C@H](C)/C=C/C=C/C=C/1C [Rapamycin, rapamycin, reference compound]
viability at 10 µM [1]: 98.8% | viability at 4.677 µM [2]: 100% | viability at 2.188 µM [3]: 89.2% | viability at 1 µM [4]: 83.1% | viability at 0.4677 µM [5]: 85.7% | viability at 0.2188 µM [6]: 86.6% | viability at 0.1 µM [7]: 92.6% | viability at 0.04677 µM [8]: 86.3% | viability at 0.02188 µM [9]: 95.8% | viability at 0.01 µM [10]: 100% | viability at 10 µM [11]: 91.9% | viability at 0.4677 µM (Homo sapiens, IMR-90, Control cells, log (dose) [M] -6.33, individual replicates, SUP FIG 4C, read-out: % Cell Survival): 77.2% | viability at 0.2188 µM [12]: 83% | viability at 0.1 µM (Homo sapiens, IMR-90, Control cells, log (dose) [M] -7, individual replicates, SUP FIG 4C, read-out: % Cell Survival): 91% | viability at 0.04677 µM [13]: 89.7% | viability at 0.02188 µM (Homo sapiens, IMR-90, Control cells, log (dose) [M] -7.66, individual replicates, SUP FIG 4C, read-out: % Cell Survival): 93% | viability at 0.01 µM (Homo sapiens, IMR-90, Control cells, log (dose) [M] -8, individual replicates, SUP FIG 4C, read-out: % Cell Survival): 109% | viability at 2.19 µM [14]: 80.5%

C=Cc1c(C)c2cc3nc(cc4[nH]c(cc5nc(cc1[nH]2)C(C)=C5CCC(=O)O)c(CCC(=O)OC)c4C)[C@@]1(C)C3=CC=C(C(=O)OC)[C@H]1C(=O)OC [Verteporfin, verteporfin, reference compound]
% Cell Survival (Control cells, log (dose) [M] -5, individual replicates, SUP FIG 4C): 101.159% and 129.718% and 89.9175% | % Cell Survival (Control cells, log (dose) [M] -5.33, individual replicates, SUP FIG 4C): 94.2029% and 128.701% and 95.0504% | % Cell Survival (Control cells, log (dose) [M] -5.66, individual replicates, SUP FIG 4C): 94.8792% and 127.571% and 91.1091% | % Cell Survival (Control cells, log (dose) [M] -6, individual replicates, SUP FIG 4C): 109.082% and 120% and 89.2759% | % Cell Survival (Control cells, log (dose) [M] -6.33, individual replicates, SUP FIG 4C): 132.367% and 79.661% and 117.324% | % Cell Survival (Control cells, log (dose) [M] -6.66, individual replicates, SUP FIG 4C): 84.5411% and 110.056% and 78.5518% | % Cell Survival (Control cells, log (dose) [M] -7, individual replicates, SUP FIG 4C): 102.222% and 109.492% and 85.1512% | % Cell Survival (Control cells, log (dose) [M] -7.33, individual replicates, SUP FIG 4C): 97.1981% and 115.141% and 84.143% | % Cell Survival (Control cells, log (dose) [M] -7.66, individual replicates, SUP FIG 4C): 102.705% and 116.158% and 105.408% | % Cell Survival (Control cells, log (dose) [M] -8, individual replicates, SUP FIG 4C): 88.6957% and 107.684% and 93.9505% | Mean % Cell Survival (Control, log (dose) [M] -5, 72 h, mean n=3 (Fig 3C)): 106.931% | Mean % Cell Survival (Control, log (dose) [M] -5.33, 72 h, mean n=3 (Fig 3C)): 105.985% | Mean % Cell Survival (Control, log (dose) [M] -5.66, 72 h, mean n=3 (Fig 3C)): 104.52% | Mean % Cell Survival (Control, log (dose) [M] -6, 72 h, mean n=3 (Fig 3C)): 106.119% | Mean % Cell Survival (Control, log (dose) [M] -6.33, 72 h, mean n=3 (Fig 3C)): 109.784% | Mean % Cell Survival (Control, log (dose) [M] -6.66, 72 h, mean n=3 (Fig 3C)): 91.0498% | Mean % Cell Survival (Control, log (dose) [M] -7, 72 h, mean n=3 (Fig 3C)): 98.955% | Mean % Cell Survival (Control, log (dose) [M] -7.33, 72 h, mean n=3 (Fig 3C)): 98.8274% | Mean % Cell Survival (Control, log (dose) [M] -7.66, 72 h, mean n=3 (Fig 3C)): 108.09% | Mean % Cell Survival (Control, log (dose) [M] -8, 72 h, mean n=3 (Fig 3C)): 96.7766% | % Cell Survival (Control, log (dose) [M] -5): 103.991% and 103.701% and 133.622% | % Cell Survival (Control, log (dose) [M] -5.33): 95.6459% and 122.354% and 108.369% | % Cell Survival (Control, log (dose) [M] -5.66): 83.672% and 98.7417% and 101.948% | % Cell Survival (Control, log (dose) [M] -6): 86.9376% and 90.2295% and 99.9278% | % Cell Survival (Control, log (dose) [M] -6.33): 101.524% and 93.2642% and 93.3622% | % Cell Survival (Control, log (dose) [M] -6.66): 98.4035% and 102.221% and 102.958% | % Cell Survival (Control, log (dose) [M] -7): 87.0827% and 92.5981% and 92.8571% | % Cell Survival (Control, log (dose) [M] -7.33): 115.893% and 95.1147% and 114.069% | % Cell Survival (Control, log (dose) [M] -7.66): 103.991% and 94.8187% and 102.958% | % Cell Survival (Control, log (dose) [M] -8): 101.306% and 100.444% and 92.0635%

COC[C@H]1C[C@@H](c2nc(-c3ccc4c(c3)COc3cc5c(ccc6nc([C@@H]7CC[C@H](C)N7C(=O)[C@@H](NC(=O)OC)C(C)C)[nH]c65)cc3-4)c[nH]2)N(C(=O)[C@H](NC(=O)OC)c2ccccc2)C1 [Velpatasvir, velpatasvir, reference compound]
viability at 10 µM [1]: 119% | viability at 4.677 µM [2]: 116% | viability at 2.188 µM [3]: 113% | viability at 1 µM [4]: 115% | viability at 0.4677 µM [5]: 86.1% | viability at 0.2188 µM [6]: 99.9% | viability at 0.1 µM [7]: 98.3% | viability at 0.04677 µM [8]: 106% | viability at 0.02188 µM [9]: 110% | viability at 0.01 µM [10]: 96.2% | viability at 10 µM [11]: 113% | viability at 0.2188 µM [12]: 91.6% | viability at 0.04677 µM [13]: 101% | viability at 10 µM (Homo sapiens, IMR-90, Control, log (dose) [M] -5, read-out: % Cell Survival): 82.9% | viability at 4.68 µM (Homo sapiens, IMR-90, Control, log (dose) [M] -5.33, read-out: % Cell Survival): 85.2% | viability at 2.19 µM [14]: 80.3% | viability at 1 µM (Homo sapiens, IMR-90, Control, log (dose) [M] -6, read-out: % Cell Survival): 80.7% | viability at 0.219 µM (Homo sapiens, IMR-90, Control, log (dose) [M] -6.66, read-out: % Cell Survival): 86% | viability at 0.1 µM (Homo sapiens, IMR-90, Control, log (dose) [M] -7, read-out: % Cell Survival): 91.2% | viability at 0.04677 µM (Homo sapiens, IMR-90, Control, log (dose) [M] -7.33, read-out: % Cell Survival): 89.7% | viability at 0.0219 µM (Homo sapiens, IMR-90, Control, log (dose) [M] -7.66, read-out: % Cell Survival): 95.3% | viability at 0.01 µM (Homo sapiens, IMR-90, Control, log (dose) [M] -8, read-out: % Cell Survival): 97.1%
